Results as given in patent publication US20140155376A1, “PYRROLOPYRAZINE KINASE INHIBITORS” (Hoffmann-La Roche Inc., priority 2010, published 2014).
pIC50: −log10 of the molar value.

Molecular target: T1, JAK3 (recombinant human kinase domain; h-jak3(810-1124)) (Homo sapiens, UniProt P52333)
T1 construct: h-jak3(810- 1124)-sf9-c; made in house; host or cells: Sf9 insect cells
Test: Determination of IC50 of Janus Kinase (JAK) inhibition: JAK3, radioactive end-point assay with 33P-ATP
Type: biochemical
Conditions: JAK3 kinase domain; ATP 1.5 uM, peptide 50 uM, 20 minutes, room temperature, 10% DMSO; read-out: Ic50 h-jak3(810-1124)-sf9-c:no additive

T1 sequence (P52333 810-1124): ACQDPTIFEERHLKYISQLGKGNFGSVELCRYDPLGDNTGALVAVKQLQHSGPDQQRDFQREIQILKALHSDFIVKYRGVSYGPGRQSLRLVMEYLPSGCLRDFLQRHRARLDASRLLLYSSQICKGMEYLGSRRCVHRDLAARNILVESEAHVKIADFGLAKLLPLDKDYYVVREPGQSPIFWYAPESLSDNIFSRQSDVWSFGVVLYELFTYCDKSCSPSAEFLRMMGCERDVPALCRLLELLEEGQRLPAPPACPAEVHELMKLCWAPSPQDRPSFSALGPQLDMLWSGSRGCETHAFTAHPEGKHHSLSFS

SMILES	pIC50
CC(C)(O)C(CCO)NC(=O)c1c[nH]c2ncc(C3CC3)nc12 (stereo not drawn) [Example I-17, 2-Cyclopropyl-5H-pyrrolo[2,3-b]pyrazine-7-carboxylic acid [2-hydroxy-1-(2-hydroxy-ethyl)-2-methyl-propyl]-amide]	7.07
Cc1csc(CNC(=O)c2ccc(-c3cnc4[nH]cc(C(=O)N[C@@H](C)C(C)(C)C)c4n3)s2)c1 [Example I-192, 2-{5-[(4-Methyl-thiophen-2-ylmethyl)-carbamoyl]-thiophen-2-yl}-5H-pyrrolo[2,3-b]pyrazine-7-carboxylic acid ((S)-1,2,2-trimethyl-propyl)-amide]	9.40
CS(=O)(=O)N1CCC(CNC(=O)c2c[nH]c3ncc(C4CC4)nc23)C1 (stereo not drawn) [Example I-109, 2-Cyclopropyl-5H-pyrrolo[2,3-b]pyrazine-7-carboxylic acid (1-methanesulfonyl-pyrrolidin-3-ylmethyl)-amide]	6.64
C[C@H](NC(=O)c1c[nH]c2ncc(Oc3ccc(F)cc3F)nc12)C(C)(C)O [Example I-125, 2-(2,4-Difluoro-phenoxy)-5H-pyrrolo[2,3-b]pyrazine-7-carboxylic acid ((S)-2-hydroxy-1,2-dimethyl-propyl)-amide]	6.30
CC(CO)CNC(=O)c1c[nH]c2ncc(C3CC3)nc12 (stereo not drawn) [Example I-69, 2-Cyclopropyl-5H-pyrrolo[2,3-b]pyrazine-7-carboxylic acid (3-hydroxy-2-methyl-propyl)-amide]	6.84
CC(C)(O)[C@@H](NC(=O)c1c[nH]c2ncc(C3CC3)nc12)C1CCCCC1 [Example I-94, 2-Cyclopropyl-5H-pyrrolo[2,3-b]pyrazine-7-carboxylic acid ((S)-1-cyclohexyl-2-hydroxy-2-methyl-propyl)-amide]	6.06
CC(NC(=O)c1c[nH]c2ncc(C3CC3)nc12)C1CCCC1 (stereo not drawn) [Example I-95, 2-Cyclopropyl-5H-pyrrolo[2,3-b]pyrazine-7-carboxylic acid (1-cyclopentyl-ethyl)-amide]	8.00
CCNC(=O)c1c[nH]c2ncc(Oc3cccc(Cl)c3)nc12 [Example I-244, 2-(3-Chloro-phenoxy)-5H-pyrrolo[2,3-b]pyrazine-7-carboxylic acid ethylamide]	5.97
N#CCC(NC(=O)c1c[nH]c2ncc(C3CC3)nc12)C1CC1 (stereo not drawn) [Example I-106, 2-Cyclopropyl-5H-pyrrolo[2,3-b]pyrazine-7-carboxylic acid (2-cyano-1-cyclopropyl-ethyl)-amide]	7.83
CC(C)NC(=O)c1c[nH]c2ncc(Oc3ccc4c(c3)[C@@H](N)CC4)nc12 [Example I-289, 2-((S)-3-Amino-indan-5-yloxy)-5H-pyrrolo[2,3-b]pyrazine-7-carboxylic acid isopropylamide]	6.27
CCc1cnc2[nH]cc(C(=O)NCC(C)(C)CO)c2n1 [Example I-39, 2-Ethyl-5H-pyrrolo[2,3-b]pyrazine-7-carboxylic acid (3-hydroxy-2,2-dimethyl-propyl)-amide]	6.52
N#CC(NC(=O)c1c[nH]c2ncc(C3CC3)nc12)C1CC1 (stereo not drawn) [Example I-90, 2-Cyclopropyl-5H-pyrrolo[2,3-b]pyrazine-7-carboxylic acid (cyano-cyclopropyl-methyl)-amide]	7.84
C[C@H](NC(=O)c1c[nH]c2ncc(C3CC3)nc12)C1(C#N)CCCC1 [Example I-101, 2-Cyclopropyl-5H-pyrrolo[2,3-b]pyrazine-7-carboxylic acid [(S)-1-(1-cyano-cyclopentyl)-ethyl]-amide]	7.92
C[C@H](NC(=O)c1c[nH]c2ncc(-c3cn(-c4cc(C(F)(F)F)ccc4F)cn3)nc12)C(C)(C)C [Example I-149, 2-[1-(2-Fluoro-5-trifluoromethyl-phenyl)-1H-imidazol-4-yl]-5H-pyrrolo[2,3-b]pyrazine-7-carboxylic acid ((S)-1,2,2-trimethyl-propyl)-amide]	8.52
CC(C)NC(=O)c1c[nH]c2ncc(Oc3ccccc3Cc3ccccc3)nc12 [Example I-237, 2-(2-Benzyl-phenoxy)-5H-pyrrolo[2,3-b]pyrazine-7-carboxylic acid isopropylamide]	5.27
